Here are results for four compounds from US20110015261A1, “USE OF A COMPOSITION COMPRISING AT LEAST ONE BETA-BLOCKER FOR THE TREATMENT OF SLEEP DISORDERS” (Zleepax Europe ApS, priority 2007, published 2011).

In series [1] the test system is patients with hypertension. The conditions noted are these: cited from earlier work; for effect on the quality of sleep: patients with hypertension (Stoschitzky 2006).
Series [2] concerns nocturnal aMT6s secretion. The conditions noted are these: healthy volunteers (Stoschitzky 2006); cited from earlier work.
The test system of series [3] is non-hypertensive stressed individuals with transient insomnia. As to the kind of experiment: Sleep quality in non-hypertensive stressed individuals with transient insomnia. The class given is in vivo, human. The conditions noted are these: 1.25 mg 2 hours before bedtime; 6 individuals (5 males, 1 female). Here is the method: 6 non-hypertensive stressed individuals with transient insomnia (5 males and 1 female) were treated with 1.25 mg Hypoloc (Nebivolol) 2 hours before bedtime.

Read-outs that look alike come from different tables or passages of the source.

On to `CC(C)NCC(O)COc1ccc(COCCOC(C)C)cc1` (centres unmarked) [Bisoprolol], for which the “effect on the quality of sleep” value in series [1] is “no negative effect”.

As to `C[C@H](CS)C(=O)N1CCC[C@H]1C(=O)O` [Captopril], the quality of sleep entry in series [1] (patients with hypertension (Testa 1993)) is recorded as “improve the quality of sleep”.

Consider `COc1ccccc1OCCNCC(O)COc1cccc2[nH]c3ccccc3c12` (centres unmarked) [Carvedilol], for which the “effect on the quality of sleep” value in series [1] was “no negative effect”. The “effects on the nocturnal aMT6s urinary secretion” value in series [2] is recorded as “little if any effects”.

As for `OC(CNCC(O)C1CCc2cc(F)ccc2O1)C1CCc2cc(F)ccc2O1` (centres unmarked) [Nebivolol], in series [1] (patients with hypertension (Erdem 2007)), the quality of sleep result is listed as “can improve the quality of sleep”. The “effect on the quality of sleep” value in series [1] was “no negative effect”. Moreover, the “sleep quality as reported by individuals” value in series [3] is on record as “significant improvement in sleep quality”. Moreover, in series [2], the “effects on the nocturnal aMT6s urinary secretion” value is “little if any effects”.
